The NIST ThermoML archive (doi:10.1016/j.jct.2006.05.008)

Assay: molar heat capacity at constant pressure; wn = mass fraction of the nth substance listed
Conditions: Small (less than 1 g) adiabatic calorimetry

CCCCn1cc[n+](C)c1.[Br-] [1-butyl-3-methylimidazolium bromide] + O
Conditions	molar heat capacity at constant pressure [J/K/mol]
152.96 K, 101.3 kPa, Glass, w2 = 0.00482	151.04
155.53 K, 101.3 kPa, Glass, w2 = 0.00482	152.59
158.09 K, 101.3 kPa, Glass, w2 = 0.00482	154.17
160.66 K, 101.3 kPa, Glass, w2 = 0.00482	155.77
163.24 K, 101.3 kPa, Glass, w2 = 0.00482	157.38
165.81 K, 101.3 kPa, Glass, w2 = 0.00482	158.96
168.39 K, 101.3 kPa, Glass, w2 = 0.00482	160.57
170.97 K, 101.3 kPa, Glass, w2 = 0.00482	162.11
173.55 K, 101.3 kPa, Glass, w2 = 0.00482	163.78
176.13 K, 101.3 kPa, Glass, w2 = 0.00482	165.35
178.71 K, 101.3 kPa, Glass, w2 = 0.00482	167.03
181.3 K, 101.3 kPa, Glass, w2 = 0.00482	168.7
183.89 K, 101.3 kPa, Glass, w2 = 0.00482	170.41
186.48 K, 101.3 kPa, Glass, w2 = 0.00482	172.04
189.06 K, 101.3 kPa, Glass, w2 = 0.00482	173.78
191.65 K, 101.3 kPa, Glass, w2 = 0.00482	175.6
194.25 K, 101.3 kPa, Glass, w2 = 0.00482	177.44
196.84 K, 101.3 kPa, Glass, w2 = 0.00482	179.31
199.44 K, 101.3 kPa, Glass, w2 = 0.00482	181.34
201.78 K, 101.3 kPa, Glass, w2 = 0.00482	183.39
203.87 K, 101.3 kPa, Glass, w2 = 0.00482	185.23
205.95 K, 101.3 kPa, Glass, w2 = 0.00482	187.63
208.05 K, 101.3 kPa, Glass, w2 = 0.00482	190.57
209.63 K, 101 kPa, Liquid, w2 = 0.0495	190.63
210.13 K, 101.3 kPa, Glass, w2 = 0.00482	194.11
211.86 K, 101 kPa, Liquid, w2 = 0.0495	190.98
212.18 K, 101.3 kPa, Glass, w2 = 0.00482	199.24
213.95 K, 101 kPa, Liquid, w2 = 0.0495	191.32
214.19 K, 101.3 kPa, Glass, w2 = 0.00482	209.18
216.04 K, 101 kPa, Liquid, w2 = 0.0495	191.7
216.1 K, 101.3 kPa, Glass, w2 = 0.00482	229.46
218.13 K, 101 kPa, Liquid, w2 = 0.0495	191.97

Crystal
Conditions	molar heat capacity at constant pressure [J/K/mol]
153.47 K, w2 = 0.00482	140.32
154 K, w2 = 0.0495	102.07
154.55 K, w2 = 0.0169	127.32
154.86 K, w2 = 0.0051	140.76
156.05 K, w2 = 0.00482	141.71
156.62 K, w2 = 0.0169	128.46
156.86 K, w2 = 0.0495	103.54
157.46 K, w2 = 0.0051	142.19
158.64 K, w2 = 0.00482	143.05
158.69 K, w2 = 0.0169	129.54
159.72 K, w2 = 0.0495	105.03
160.06 K, w2 = 0.0051	143.6
160.76 K, w2 = 0.0169	130.58
161.22 K, w2 = 0.00482	144.52
162.58 K, w2 = 0.0495	107.12
162.67 K, w2 = 0.0051	145.04
162.83 K, w2 = 0.0169	131.81
163.81 K, w2 = 0.00482	145.98
164.91 K, w2 = 0.0169	133.35
165.35 K, w2 = 0.0051	146.89
165.42 K, w2 = 0.0495	110.43
166.4 K, w2 = 0.00482	147.42
166.98 K, w2 = 0.0169	135.28
167.95 K, w2 = 0.0051	148.6
168.2 K, w2 = 0.0495	119.37
168.99 K, w2 = 0.00482	148.99
169.05 K, w2 = 0.0169	138.58
170.54 K, w2 = 0.0051	150.98
170.84 K, w2 = 0.0495	133.87
171.1 K, w2 = 0.0169	143.34
171.58 K, w2 = 0.00482	150.69
173.12 K, w2 = 0.0051	153.72
173.15 K, w2 = 0.0169	146.3
173.43 K, w2 = 0.0495	137.89
174.17 K, w2 = 0.00482	152.56
175.22 K, w2 = 0.0169	148.17
175.7 K, w2 = 0.0051	155.58
176.02 K, w2 = 0.0495	137.25
176.76 K, w2 = 0.00482	154.52
177.3 K, w2 = 0.0169	149.6
178.27 K, w2 = 0.0051	157.05
178.63 K, w2 = 0.0495	136.83
179.35 K, w2 = 0.00482	156.32
179.39 K, w2 = 0.0169	150.75
180.85 K, w2 = 0.0051	158.5
181.26 K, w2 = 0.0495	136.85
181.47 K, w2 = 0.0169	151.73
181.94 K, w2 = 0.00482	158.09
182.13 K, w2 = 0.0495	137.03
183.43 K, w2 = 0.0051	159.93
183.55 K, w2 = 0.0169	152.69
183.89 K, w2 = 0.0495	137.25
184.55 K, w2 = 0.00482	159.97
184.8 K, w2 = 0.0495	137.33
185.63 K, w2 = 0.0169	153.62
186 K, w2 = 0.0051	161.23
186.52 K, w2 = 0.0495	137.88
187.15 K, w2 = 0.00482	161.48
187.43 K, w2 = 0.0495	137.82
187.72 K, w2 = 0.0169	154.64
188.57 K, w2 = 0.0051	162.67
189.16 K, w2 = 0.0495	138.51
189.75 K, w2 = 0.00482	163.1
189.81 K, w2 = 0.0169	155.65
190.07 K, w2 = 0.0495	138.44
191.13 K, w2 = 0.0051	164.05
191.82 K, w2 = 0.0495	139.23
191.89 K, w2 = 0.0169	156.63
192.35 K, w2 = 0.00482	164.66
192.72 K, w2 = 0.0495	139.22
193.7 K, w2 = 0.0051	165.5
193.98 K, w2 = 0.0169	157.56
194.48 K, w2 = 0.0495	139.88
194.95 K, w2 = 0.00482	166.1
195.38 K, w2 = 0.0495	139.99
196.08 K, w2 = 0.0169	158.61
196.26 K, w2 = 0.0051	166.89
197.16 K, w2 = 0.0495	140.43
197.55 K, w2 = 0.00482	167.55
198.05 K, w2 = 0.0495	140.75
198.17 K, w2 = 0.0169	159.59
198.82 K, w2 = 0.0051	168.3
200.15 K, w2 = 0.00482	169
200.26 K, w2 = 0.0169	160.53
200.73 K, w2 = 0.0495	141.5
201.38 K, w2 = 0.0051	169.66
202.36 K, w2 = 0.0169	161.49
202.75 K, w2 = 0.00482	170.67
203.43 K, w2 = 0.0495	142.32
203.93 K, w2 = 0.0051	171.24
204.46 K, w2 = 0.0169	162.5
205.36 K, w2 = 0.00482	172.16
206.48 K, w2 = 0.0051	172.9
206.55 K, w2 = 0.0169	163.54
207.97 K, w2 = 0.00482	173.71
208.05 K, w2 = 0.0495	144.92
208.65 K, w2 = 0.0169	164.5
209.03 K, w2 = 0.0051	175.02
210.59 K, w2 = 0.00482	175.21
210.75 K, w2 = 0.0495	151.13
210.77 K, w2 = 0.0169	165.47
211.56 K, w2 = 0.0051	176.7
212.87 K, w2 = 0.0169	166.55
213.21 K, w2 = 0.00482	176.73
213.38 K, w2 = 0.0495	150.25
214.1 K, w2 = 0.0051	177.3
214.97 K, w2 = 0.0169	167.69
215.83 K, w2 = 0.00482	178.25
215.99 K, w2 = 0.0495	154.67
216.64 K, w2 = 0.0051	178.89
216.82 K, w2 = 0.00482	178.65
217.07 K, w2 = 0.0169	169.05
217.64 K, w2 = 0.0169	168.8
